Measured values reported in PMC11961695 (Annals of oncology : official journal of the European …, 2022).
“Also recorded” adds a separate entry of the source. Like-named read-outs stand apart in the source and are kept apart here.

Key:
[1] = test system: locally advanced or metastatic cholangiocarcinoma; conditions: cited from earlier work
[2] = test system: refractory advanced malignancies with and without FGF/FGFR alterations; experiment: FIGHT-101 tumor response per investigator
serum phosphate = experiment: Serum phosphate pharmacodynamics and Emax exposure-response model; conditions: in vivo
[3] = FIGHT-101 safety and tolerability
[4] = FIGHT-101 clinical pharmacokinetics
[5] = FIGHT-202, FGFR2 fusions or rearrangements
[6] = cholangiocarcinoma with FGFR2 fusions or rearrangements (13 patients)
[7] = all treated patients, any grade

In the case of `CCN1C(=O)N(c2c(F)c(OC)cc(OC)c2F)Cc2cnc3[nH]c(CN4CCOCC4)cc3c21` [pemigatinib], the Disease control rate [1, 5] is listed as 82%, the “Estimated median OS” value [1, 5] is listed as 17.5 months and the ORR [1, 5] is listed as 35.5%. For the same molecule, the Disease control rate ([1]; FIGHT-202, no FGF/FGFR alterations) was 22%, the Disease control rate ([1]; FIGHT-202, other FGF/FGFR alterations) was 40% and the Stable disease ([2]; FGF amplification) was 20%. For the same molecule, the Stable disease ([2]; FGFR amplification) was 26.9%, the Stable disease ([2]; FGFR fusions or rearrangements) was 50% and the “Median PFS” value ([2]; FGFR fusions or rearrangements (n = 20)) was 5.7 months. The Stable disease ([2]; FGFR mutations) was 23.1%, the “Median PFS” value ([2]; FGFR mutations (n = 13)) was 5.0 months and the “Time to disease progression, individual patient” value ([2]; adenoid cystic carcinoma of the head and neck, 9 mg QD (CD)) was 20.5 months. For the same molecule, the “Time on treatment to PR, individual patient” value ([2]; adenoid cystic carcinoma of the head and neck, 9 mg QD (CD), no FGF/FGFR alterations) was 6.0 months, the Disease progression ([2]; all patients (N = 128)) was 38.3% and the “Median PFS” value ([2]; all patients (N = 128)) was 2.8 months. For the same molecule, the Partial response ([2]; all patients (N = 128)) was 9.4%, the “Partial responses achieved, number” value ([2]; all patients (N = 128)) was 12 and the Stable disease ([2]; all patients (N = 128)) was 31.3%. For the same molecule, the “Median duration of response” value ([2]; all responders (n = 12)) was 7.3 months, the Partial response [2, 6] was 23.1% and the Stable disease [2, 6] was 61.5%. The “Duration of response, individual patient” value ([2]; cholangiocarcinoma, FGFR2-CCDC6 fusion) was 11.3 months, the “Time on treatment to PR, individual patient” value ([2]; non-small-cell lung cancer, 9 mg QD (CD), FGF/FGFR status unknown) was 6.2 months and the “Duration of response, individual patient” value ([2]; non-small-cell lung cancer, 9 mg QD (CD), ongoing at database lock) was 29.9 months. For the same molecule, the “Duration of response, individual patient” value ([2]; pancreatic cancer, FGFR2-USP33 fusion) was 10.7 months, the Stable disease ([2]; patients with FGF/FGFR alterations) was 30.4% and the ORR ([2]; patients with FGFR fusions or rearrangements) was 25.0%. The ORR ([2]; patients with FGFR mutations) was 23.1%, the “Best median percentage change in target lesion size” value ([2]; patients with SD and FGF/FGFR alterations (n = 24)) was −8.0% and the “Median PFS” value ([2]; positive for FGF/FGFR alterations (n = 79)) was 3.0 months. For the same molecule, the Pharmacologically active doses (serum phosphate) was no less than 4 mg, the Dose-limiting toxicities ([3]; 1–20 mg QD, ID or CD, cycle 1) was “No dose-limiting toxicities were reported; also recorded: No DLTs were reported in any dose cohort; also recorded: No DLTs were encountered” and the “Clinically notable TEAEs” value ([3]; CD) was 86.2%. For the same molecule, the “Dose interruptions due to TEAEs” value ([3]; CD) was 74.1%, the “Dose reductions due to TEAEs” value ([3]; CD) was 17.2% and the “Fatigue, grade ≥3 TEAE” value ([3]; CD) was 15.5%. For the same molecule, the “Grade ≥3 TEAEs” value ([3]; CD) was 75.9%, the “Grade ≥3 hyponatremia” value ([3]; CD) was 10.3% and the “Grade ≥3 stomatitis” value ([3]; CD) was 17.2%. For the same molecule, the “Hyperphosphatemia, any-cause TEAE” value ([3]; CD) was 82.8%, the Hypophosphatemia events ([3]; CD) was 12.1% and the “Treatment discontinuations due to TEAEs” value ([3]; CD) was 12.1%. The “Clinically notable TEAEs” value ([3]; ID) was 77.1%, the “Dose interruptions due to TEAEs” value ([3]; ID) was 32.9% and the “Dose reductions due to TEAEs” value ([3]; ID) was 5.7%. The “Fatigue, grade ≥3 TEAE” value ([3]; ID) was 5.7%, the “Grade ≥3 TEAEs” value ([3]; ID) was 50.0% and the “Grade ≥3 hyponatremia” value ([3]; ID) was 7.1%. The “Grade ≥3 stomatitis” value ([3]; ID) was 1.4%, the “Hyperphosphatemia, any-cause TEAE” value ([3]; ID) was 68.6% and the Hypophosphatemia events ([3]; ID) was 18.6%. For the same molecule, the “Treatment discontinuations due to TEAEs” value ([3]; ID) was 8.6%, the “TEAEs of dry eye” value ([3]; all patients) was 23.4% and the “TEAEs of eyelash changes” value ([3]; all patients) was 13.3%. For the same molecule, the “TEAEs of serous retinal detachment” value ([3]; all patients) was “no TEAEs of serous retinal detachment; also recorded: no serous retinal detachment events were reported”, the “TEAEs of vision blurred” value ([3]; all patients) was 16.4% and the “TEAEs of vitreous detachment” value ([3]; all patients) was 1.6%. The “Clinically notable TEAEs” value ([3]; all treated patients) was 81.3%, the “Dose interruption due to hypophosphatemia” value ([3]; all treated patients) was 1.6% and the “Dose interruption due to nail toxicities” value ([3]; all treated patients) was 7.8%. The “Dose interruption for hyperphosphatemia” value ([3]; all treated patients) was 9.4%, the “Dose reduction due to nail toxicities” value ([3]; all treated patients) was 0.8% and the “Dose reduction for hyperphosphatemia” value ([3]; all treated patients) was 1.6%. The “Dose reductions due to hypophosphatemia” value ([3]; all treated patients) was “none required dose reductions”, the “Fatigue, grade ≥3 TEAE” value ([3]; all treated patients) was 10.2% and the “Hyperphosphatemia requiring dose interruption” value ([3]; all treated patients) was 12 n. For the same molecule, the “Hyperphosphatemia, grade ≥3” value ([3]; all treated patients) was 2.3%, the Nail discoloration ([3]; all treated patients) was 13.3% and the Onycholysis ([3]; all treated patients) was 14.8%. The Paronychia ([3]; all treated patients) was 10.2%, the “Patients with TEAE-related treatment discontinuation” value ([3]; all treated patients) was 10.2% and the “Patients with a TEAE” value ([3]; all treated patients) was 99.2%. For the same molecule, the “Patients with dose interruption due to TEAEs” value ([3]; all treated patients) was 51.6%, the “Patients with dose reduction due to TEAEs” value ([3]; all treated patients) was 10.9% and the “Treatment-related TEAE” value ([3]; all treated patients) was 90.6%. The “Hyperphosphatemia, any-cause TEAE” value ([3]; all treated patients (N = 128), any grade) was 75%, the “Stomatitis requiring dose reduction” value ([3]; all treated patients (all CD)) was 4 n and the Pneumonia requiring discontinuation ([3]; all treated patients (both ID)) was 2 n. For the same molecule, the “Small intestinal obstruction requiring discontinuation” value ([3]; all treated patients (both ID)) was 2 n, the “Hyperphosphatemia, treatment-related TEAE” value [3, 7] was 73.4% and the Hypophosphatemia events [3, 7] was 15.6%. The Nail toxicities [3, 7] was 32.0%, the “Hyperphosphatemia, treatment-related TEAE” value ([3]; all treated patients, grade ≥3) was 1.6% and the Hypophosphatemia events ([3]; all treated patients, grade ≥3) was 5.5%. For the same molecule, the Nail toxicities ([3]; all treated patients, grade ≥3) was 3.1%, the “Treatment discontinuations resulting from clinically notable TEAEs” value ([3]; grade 3 paronychia (20 mg CD), grade 2 trichiasis (13.5 mg CD)) was “two” and the “Permanent treatment discontinuation due to hyperphosphatemia” value ([3]; in vivo) was “None of the hyperphosphatemia events resulted in permanent treatment discontinuation”. For the same molecule, the “Relation of deaths due to TEAEs to treatment” value ([3]; in vivo) was “None of these deaths were considered treatment-related”, the Maximum tolerated dose ([3]; monotherapy, 1–20 mg QD) was “not reached” and the “Increase in average per-cycle exposure, CD versus ID regimen” value ([4]; 13.5 mg QD) was 50%. The “Dose proportionality of steady-state Cmax and AUC0–24” value ([4]; 1–20 mg QD) was “dose-proportional increases”, the “Effect of a high-fat and high-calorie meal on pharmacokinetics” value ([4]; human, in vivo) was “modest effects on pemigatinib pharmacokinetics that were not considered clinically meaningful” and the half-life ([4]; human, in vivo, Steady-state geometric mean terminal-phase disposition half-life, doses ≥6 mg QD) was 12.1 to 15.4 h.
